# Experimental data as given in PMC7044277 (Nature Communications, 2020).
# “And” between values parts separate entries of the source, which are not always exact repeats. Equal values may be shown once.
# Legend:
# Assay type in all cases: cell-based
# 320 non-olfactory GPCRs [1] = target: 320 non-olfactory GPCRs (Homo sapiens, UniProt O43193); conditions: receptor MLNR; replicate values, Fig_4g
# 320 non-olfactory GPCRs [2] = target: T1, 320 non-olfactory GPCRs (Homo sapiens, UniProt Q86VZ1); conditions: receptor P2RY8; replicate values, Fig_4g
# T1 construct: expressed in transfected cells; host or cells: HTLA cells
# T1 sequence (Q86VZ1 whole entry): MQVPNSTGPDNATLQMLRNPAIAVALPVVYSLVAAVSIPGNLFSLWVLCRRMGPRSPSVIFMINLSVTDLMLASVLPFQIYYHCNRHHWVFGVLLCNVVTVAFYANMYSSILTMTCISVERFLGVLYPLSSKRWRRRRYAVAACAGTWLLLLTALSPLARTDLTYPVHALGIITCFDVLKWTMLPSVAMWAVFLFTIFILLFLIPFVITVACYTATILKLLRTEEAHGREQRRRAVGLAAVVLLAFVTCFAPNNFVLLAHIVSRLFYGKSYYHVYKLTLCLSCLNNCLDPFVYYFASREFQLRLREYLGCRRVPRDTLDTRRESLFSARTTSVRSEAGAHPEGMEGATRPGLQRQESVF
# 320 non-olfactory GPCRs [3] = target: T2, 320 non-olfactory GPCRs (Homo sapiens, UniProt Q8TDS5); conditions: receptor OXER1; replicate values, Fig_4g
# T2 construct: expressed in transfected cells; host or cells: HTLA cells
# T2 sequence (Q8TDS5 whole entry): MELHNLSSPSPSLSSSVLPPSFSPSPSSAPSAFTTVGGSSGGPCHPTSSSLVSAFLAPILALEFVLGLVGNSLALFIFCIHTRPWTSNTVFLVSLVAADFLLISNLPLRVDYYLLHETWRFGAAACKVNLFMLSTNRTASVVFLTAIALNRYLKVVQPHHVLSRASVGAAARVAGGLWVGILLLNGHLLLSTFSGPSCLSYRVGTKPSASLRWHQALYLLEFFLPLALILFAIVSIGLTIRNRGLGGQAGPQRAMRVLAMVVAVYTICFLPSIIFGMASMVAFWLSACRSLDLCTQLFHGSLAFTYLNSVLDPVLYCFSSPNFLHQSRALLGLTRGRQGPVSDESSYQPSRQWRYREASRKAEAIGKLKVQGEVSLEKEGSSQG
# 320 non-olfactory GPCRs [4] = target: T3, 320 non-olfactory GPCRs (Homo sapiens, UniProt Q9GZQ6); conditions: receptor NPFF1; replicate values, Fig_4g
# T3 construct: expressed in transfected cells; host or cells: HTLA cells
# T3 sequence (Q9GZQ6 whole entry): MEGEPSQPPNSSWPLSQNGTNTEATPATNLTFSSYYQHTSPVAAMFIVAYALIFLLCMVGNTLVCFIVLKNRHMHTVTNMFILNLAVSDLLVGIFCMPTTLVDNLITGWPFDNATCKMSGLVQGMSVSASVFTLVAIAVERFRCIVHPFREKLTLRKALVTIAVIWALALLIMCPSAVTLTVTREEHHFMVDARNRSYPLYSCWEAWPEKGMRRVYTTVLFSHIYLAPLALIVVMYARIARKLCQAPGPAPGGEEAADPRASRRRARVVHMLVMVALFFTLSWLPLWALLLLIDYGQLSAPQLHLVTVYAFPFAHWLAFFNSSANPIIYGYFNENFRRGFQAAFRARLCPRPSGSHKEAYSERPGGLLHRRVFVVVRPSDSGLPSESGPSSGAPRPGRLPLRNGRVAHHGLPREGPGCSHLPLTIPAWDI
# 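Further: fold over basal response of each receptor without drug.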
# 320 non-olfactory GPCRs (Homo sapiens, UniProt O43193), sequence (O43193 whole entry): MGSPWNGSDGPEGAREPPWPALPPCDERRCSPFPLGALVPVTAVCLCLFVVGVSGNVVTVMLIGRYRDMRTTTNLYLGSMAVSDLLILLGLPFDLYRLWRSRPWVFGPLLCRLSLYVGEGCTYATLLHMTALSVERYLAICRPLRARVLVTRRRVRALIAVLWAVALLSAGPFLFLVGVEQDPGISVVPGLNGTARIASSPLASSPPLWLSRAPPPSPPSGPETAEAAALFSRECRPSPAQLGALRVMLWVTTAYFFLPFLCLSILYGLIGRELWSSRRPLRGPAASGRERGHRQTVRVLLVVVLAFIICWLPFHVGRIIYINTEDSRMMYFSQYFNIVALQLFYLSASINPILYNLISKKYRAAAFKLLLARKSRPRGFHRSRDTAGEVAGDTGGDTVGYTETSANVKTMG
compound,measurement,setting,value
CCOc1cccc2cc(C(C)NCC3(O)CCCCC3)oc12 (stereo not shown) [O4LE6],GPCRome agonism screen response,320 non-olfactory GPCRs [1],1.48 and 1.279 and 0.7077 and 1.039
same,GPCRome agonism screen response,320 non-olfactory GPCRs [2],0.862 and 0.8339 and 1.83 and 1.383
same,GPCRome agonism screen response,320 non-olfactory GPCRs [3],0.5177 and 0.9727 and 1.432 and 1.135
same,GPCRome agonism screen response,320 non-olfactory GPCRs [4],1.802 and 0.79 and 0.7669 and 0.6228
